In article PMC11858653, “Design, Synthesis and Bioactive Evaluation of Topo I/c-MYC Dual Inhibitors to Inhibit Oral Cancer via Regulating the PI3K/AKT/NF-κB Signaling Pathway” (Molecules, 2025):

Experiments:
MGC-803 = experiment: MTT antiproliferative assay, MGC-803; format: cell-based, human; details: mean ± SD
Description: (§1) Having evaluated their Topo I inhibitory activity, the antiproliferative activity of the target compounds against some common human cancer cell lines (NCI-H460, A549, ACHN, Cal27 and MGC-803) and one normal cell line (SV-HUC-1) was tested via an MTT assay. TPT, the first Topo I inhibitor approved in clinics, and cisplatin (CDDP), a commonly selected anticancer drug for treating head and neck malignancies, were used as the positive controls.
(§2) Human oral cancer Cal27 cells were seeded in 96-well plates and incubated overnight in 180 μL of medium containing 10% Fetal Bovine Serum (Gibco, San Francisco, CA, USA). […] Then, 10 μL of 5 mg/mL MTT solution was added to each well and incubated at 37 °C for 4 h. After 4 h of incubation at 37 °C, the MTT-containing medium was removed and DMSO was added to each well and the absorbance at 570 nm and 630 nm was measured using a microplate reader (CYTATION 3, Burton, Westwood, NJ, USA). Survival/% = (mean OD of experimental group/mean OD of control group) × 100%. Each test was repeated at least three times.

Cal27 = experiment: MTT antiproliferative assay, Cal27; format: cell-based, human; details: mean ± SD
Description: as §1, §2

A549 = experiment: MTT antiproliferative assay, A549; format: cell-based, human; details: mean ± SD
Description: as §1, §2

SV-HUC-1 = experiment: MTT assay, normal cell line SV-HUC-1; format: cell-based; details: mean ± SD
Description: as §1, §2

ACHN = experiment: MTT antiproliferative assay, ACHN; format: cell-based, human; details: 48 h, mean ± SD
Description: as §1, §2

NCI-H460 = experiment: MTT antiproliferative assay, NCI-H460; format: cell-based, human; details: mean ± SD
Description: as §1, §2

Topo I = target: T1, Topo I (Homo sapiens, UniProt P11387); experiment: Topo I inhibitory activity, agarose gel electrophoresis (pBR322); format: biochemical; details: 20 μM
T1 sequence (P11387 1-765): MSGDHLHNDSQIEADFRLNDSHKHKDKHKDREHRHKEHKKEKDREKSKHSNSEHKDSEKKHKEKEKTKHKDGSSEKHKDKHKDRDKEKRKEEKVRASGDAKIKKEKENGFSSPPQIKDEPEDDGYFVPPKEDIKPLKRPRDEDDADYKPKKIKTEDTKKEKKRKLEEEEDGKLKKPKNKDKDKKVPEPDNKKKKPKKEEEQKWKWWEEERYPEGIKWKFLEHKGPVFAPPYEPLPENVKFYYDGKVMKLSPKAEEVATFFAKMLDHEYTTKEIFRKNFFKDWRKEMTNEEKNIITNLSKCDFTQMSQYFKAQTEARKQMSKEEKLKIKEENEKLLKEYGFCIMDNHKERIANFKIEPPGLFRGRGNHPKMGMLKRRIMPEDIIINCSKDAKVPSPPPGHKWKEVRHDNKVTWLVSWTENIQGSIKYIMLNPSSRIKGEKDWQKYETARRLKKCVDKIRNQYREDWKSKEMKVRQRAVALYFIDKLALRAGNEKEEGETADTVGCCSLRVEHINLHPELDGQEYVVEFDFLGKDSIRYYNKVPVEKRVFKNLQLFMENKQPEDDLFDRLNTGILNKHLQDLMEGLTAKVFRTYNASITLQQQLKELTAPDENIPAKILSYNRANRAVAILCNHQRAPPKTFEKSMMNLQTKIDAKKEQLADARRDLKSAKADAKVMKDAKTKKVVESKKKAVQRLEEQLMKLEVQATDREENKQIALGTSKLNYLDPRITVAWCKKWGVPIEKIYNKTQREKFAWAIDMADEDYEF
Description: In this assay, 250 ng of pBR322 plasmid DNA, different concentrations of the compounds to be tested, 0.1% BSA 1 μL, 10× Topo I buffer, Topo I and add 1× TAE buffer were mixed to a final volume of 20 μL. The reaction was carried out for 30 min at 37 °C in a water bath. After the reaction was terminated, 4 μL of each of the 6× DNA Sampling Buffers were added to the gel. The pBR322 plasmid DNA alone was used as a negative control, and camptothecin was used as a positive control. Finally, the samples were loaded onto the gels and electrophoresed for about 1.5 h. After electrophoresis, the gel blocks were incubated in 1 mg/L ethidium bromide (EB) for 30 min and then visualized on the gel system.

Row | IC50 (MGC-803; Homo sapiens, MGC-803, 48 h) | IC50 (A549; Homo sapiens, A549, 48 h) | IC50 (ACHN; Homo sapiens, ACHN) | IC50 (NCI-H460; Homo sapiens, NCI-H460, 48 h) | IC50 (MGC-803; 48 h) | IC50 (A549; 48 h) | IC50 (ACHN) | IC50 (NCI-H460; 48 h) | nicked DNA in the lane (DNA breakage) (Topo I) | Topo I inhibitory activity (in words) (Topo I) | Compound | IC50 (Cal27; Homo sapiens, CAL-27, 48 h) | IC50 (SV-HUC-1; SV-HUC1, 48 h) | IC50 (Cal27; 48 h) | IC50 (SV-HUC-1; 48 h)
1 | – | – | – | – | 94 ± 2.15 µM | 86.5 ± 3.15 µM | > 100 µM | 93 ± 8.03 µM | – | – | Cc1cc(-c2ccccc2)nc2c1-c1nc(NCCN3CCCCC3)c3ccccc3c1S2(=O)=O [7ce, 7-Methyl-9-phenyl-5-((2-(piperidin-1-yl)ethyl)-amino)pyrido[3′,2′:4,5]thieno[3,2-c]isoquinoline 11,11-dioxide] | – | – | 56.8 ± 2.59 µM | > 100 µM
2 | > 100 µM | 80.5 ± 2.44 µM | > 100 µM | 73.68 ± 0.67 µM | – | – | – | – | – | weak Topo I activity | Cc1cc(C)c2c(n1)S(=O)(=O)c1c-2nc(NCCCN2CCOCC2)c2ccccc12 [7bi, 7,9-Dimethyl-5-((3-morpholinopropyl)amino)-pyrido[3′,2′:4,5]thieno[3,2-c]isoquinoline 11,11-dioxide] | 20.3 ± 2.89 µM | 87.4 ± 2.65 µM | – | –
3 | – | – | – | – | > 100 µM | 78.9 ± 2.86 µM | > 100 µM | > 100 µM | – | – | Cc1cc(-c2ccccc2)nc2c1-c1nc(NCCN3CCOCC3)c3ccccc3c1S2(=O)=O [7cd, 7-Methyl-5-((2-morpholinoethyl)amino)-9-phenylpyrido[3′,2′:4,5]thieno[3,2-c]isoquinoline 11,11-dioxide] | – | – | > 100 µM | > 100 µM
4 | – | – | – | – | > 100 µM | > 100 µM | > 100 µM | > 100 µM | – | – | Cc1cc(-c2ccccc2)nc2c1-c1nc(NCCCN3CCOCC3)c3ccccc3c1S2(=O)=O [7ci, 7-Methyl-5-((3-morpholinopropyl)amino)-9-phenylpyrido[3′,2′:4,5]thieno[3,2-c]isoquinoline 11,11-dioxide] | – | – | > 100 µM | > 100 µM
5 | – | – | – | – | > 100 µM | > 100 µM | > 100 µM | > 100 µM | – | – | Cc1cc(-c2ccccc2)nc2c1-c1nc(NCCN3CCCC3)c3ccccc3c1S2(=O)=O [7cc, 7-Methyl-9-phenyl-5-((2-(pyrrolidin-1-yl)ethyl)amino)pyrido[3′,2′:4,5]thieno[3,2-c]isoquinoline 11,11-dioxide] | – | – | > 100 µM | > 100 µM

Further lines, the molecule ahead of its results:

Row | Compound | IC50 (MGC-803; Homo sapiens, MGC-803, 48 h) | IC50 (A549; Homo sapiens, A549, 48 h) | IC50 (ACHN; Homo sapiens, ACHN) | IC50 (NCI-H460; Homo sapiens, NCI-H460, 48 h) | IC50 (MGC-803; 48 h) | IC50 (A549; 48 h) | IC50 (ACHN) | IC50 (NCI-H460; 48 h) | nicked DNA in the lane (DNA breakage) (Topo I) | Topo I inhibitory activity (in words) (Topo I) | IC50 (Cal27; Homo sapiens, CAL-27, 48 h) | IC50 (SV-HUC-1; SV-HUC1, 48 h) | IC50 (Cal27; 48 h) | IC50 (SV-HUC-1; 48 h)
6 | O=S1(=O)c2ncccc2-c2nc(NCCCn3ccnc3)c3ccccc3c21 [7aj, 5-((3-(1H-Imidazol-1-yl)propyl)amino)pyrido[3′,2′:4,5]thieno[3,2-c]isoquinoline 11,11-dioxide] | > 100 µM | > 100 µM | > 100 µM | > 100 µM | – | – | – | – | – | – | > 100 µM | > 100 µM | – | –
7 | CCN(CC)CCCNc1nc2c(c3ccccc13)S(=O)(=O)c1ncccc1-2 [7ag, 5-((3-(Diethylamino)propyl)amino)pyrido[3′,2′:4,5] thieno[3,2-c]isoquinoline 11,11-dioxide] | 24.37 ± 0.18 µM | 30 ± 0.31 µM | 26.9 ± 0.72 µM | 57.8 ± 0.65 µM | – | – | – | – | nicked DNA could be clearly observed | – | 22.5 ± 1.84 µM | 75.8 ± 2.79 µM | – | –
8 | O=S1(=O)c2ncccc2-c2nc(NCCCN3CCOCC3)c3ccccc3c21 [7ai, 5-((3-Morpholinopropyl)amino)pyrido[3′,2′:4,5] thieno[3,2-c]isoquinoline 11,11-dioxide] | > 100 µM | > 100 µM | > 100 µM | > 100 µM | – | – | – | – | – | – | > 100 µM | > 100 µM | – | –
9 | CN(C)CCNc1nc2c(c3ccccc13)S(=O)(=O)c1ncccc1-2 [7aa, 5-((2-(Dimethylamino)ethyl)amino)pyrido[3′,2′:4,5] thieno[3,2-c]isoquinoline 11,11-dioxide] | 21.6 ± 0.64 µM | > 100 µM | 20.5 ± 4.82 µM | 59 ± 3.81 µM | – | – | – | – | – | – | 14.4 ± 4.75 µM | 20.8 ± 3.83 µM | – | –
10 | Cc1cc(C)c2c(n1)S(=O)(=O)c1c-2nc(NCCCn2ccnc2)c2ccccc12 [7bj, 5-((3-(1H-Imidazol-1-yl)propyl)amino)-7,9-dimethylpyrido[3′,2′:4,5]thieno[3,2-c]isoquinoline 11,11-dioxide] | > 100 µM | > 100 µM | > 100 µM | > 100 µM | – | – | – | – | – | – | > 100 µM | > 100 µM | – | –
11 | CCN(CC)CCNc1nc2c(c3ccccc13)S(=O)(=O)c1nc(-c3ccccc3)cc(C)c1-2 [7cb, 5-((2-(Diethylamino)ethyl)amino)-7-methyl-9-phenylpyrido[3′,2′:4,5]thieno[3,2-c]isoquinoline 11,11-dioxide] | – | – | – | – | > 100 µM | 37.39 ± 0.21 µM | > 100 µM | > 100 µM | – | – | – | – | 20.3 ± 2.34 µM | > 100 µM
12 | CCN(CC)CCNc1nc2c(c3ccccc13)S(=O)(=O)c1ncccc1-2 [7ab, 5-((2-(Diethylamino)ethyl)amino)pyrido[3′,2′:4,5] thieno[3,2-c]isoquinoline 11,11-dioxide] | 47 ± 2.43 µM | 42.6 ± 1.89 µM | > 100 µM | 59.7 ± 9.65 µM | – | – | – | – | – | – | 23.8 ± 1.08 µM | 21.6 ± 3.19 µM | – | –
13 | O=S1(=O)c2ncccc2-c2nc(NCCN3CCCCC3)c3ccccc3c21 [7ae, 5-((2-(Piperidin-1-yl)ethyl)amino)pyrido[3′,2′:4,5] thieno[3,2-c]isoquinoline 11,11-dioxide] | 14.2 ± 2.46 µM | > 100 µM | 61.7 ± 4.9 µM | 16.9 ± 0.78 µM | – | – | – | – | – | – | 7.96 ± 2.24 µM | 15.2 ± 2.43 µM | – | –
14 | O=S1(=O)c2ncccc2-c2nc(NCCN3CCOCC3)c3ccccc3c21 [7ad, 5-((2-Morpholinoethyl)amino)pyrido[3′,2′:4,5]thieno[3,2-c]isoquino-line 11,11-dioxide] | > 100 µM | > 100 µM | > 100 µM | > 100 µM | – | – | – | – | – | – | > 100 µM | > 100 µM | – | –
15 | Cc1cc(-c2ccccc2)nc2c1-c1nc(NCCCn3ccnc3)c3ccccc3c1S2(=O)=O [7cj, 5-((3-(1H-imidazol-1-yl)propyl)amino)-7-methyl-9-phenylpyrido[3′,2′:4,5]thieno[3,2-c]isoquinoline 11,11-dioxide] | – | – | – | – | > 100 µM | > 100 µM | > 100 µM | > 100 µM | – | – | – | – | > 100 µM | > 100 µM
16 | CC[C@@]1(O)C(=O)OCc2c1cc1n(c2=O)Cc2cc3c(CN(C)C)c(O)ccc3nc2-1 [TPT, topotecan, reference compound] | 6.36 ± 1.09 µM | 3.84 ± 0.56 µM | 4.32 ± 0.63 µM | 21.4 ± 1.33 µM | – | – | – | – | – | – | 2.33 ± 0.12 µM | 30.8 ± 1.58 µM | – | –
17 | Cc1cc(-c2ccccc2)nc2c1-c1nc(NCCN(C)C)c3ccccc3c1S2(=O)=O [7ca, 5-((2-(Dimethylamino)ethyl)amino)-7-methyl-9-phenylpyrido[3′,2′:4,5]-thieno[3,2-c]isoquinoline 11,11-dioxide] | – | – | – | – | 53.1 ± 3.78 µM | > 100 µM | > 100 µM | > 100 µM | – | – | – | – | > 100 µM | > 100 µM
18 | O=S1(=O)c2ncccc2-c2nc(N3CCCC3)c3ccccc3c21 [7al, 5-(Pyrrolidin-1-yl)pyrido[3′,2′:4,5]thieno[3,2-c]isoquinoline 11,11-dioxide] | > 100 µM | > 100 µM | > 100 µM | > 100 µM | – | – | – | – | – | – | > 100 µM | > 100 µM | – | –
